{
  "source": "paper PMC6651024",
  "about": "“LIR Motif-Containing Hyperdisulfide β-Ginkgotide is Cytoprotective, Adaptogenic, and Scaffold-Ready” (Molecules, 2019)",
  "test_system": "SH-SY5Y cells",
  "test": "LDH release cytotoxicity assay, SH-SY5Y",
  "format": "cell-based, mouse",
  "details": "10 µM peptide, 48 h, 37 °C, LDH kit, 450 nm, triplicates",
  "from_the_text": "In addition, β-gB1 is non-toxic to Vero and BHK (baby hamster kidney) cell lines based on an MTT assay. […] LDH is a cytoplasmic enzyme which is rapidly released into the cell culture medium upon plasma membrane damage and is widely used as a marker for cytotoxicity. Thus, an LDH-release assay measures the level of plasma membrane damage to a cell population.\nRat cardio-myoblast cells (H9c2) and […] neuron-like SH-SY5Y cells were purchased from ATCC and maintained in DMEM (Dulbecco’s modified eagle medium) medium supplemented with 10% fetal bovine serum (FBS), 10,000 U/mL of penicillin, and 10,000 µg/mL of streptomycin at 37 °C, 5% CO2.\nAn LDH release assay was performed using the CytoSelect™ LDH cytotoxicity assay kit (CBA-241, Cell Biolabs, Inc., San Diego, CA, USA). In brief, cells were cultured in DMEM with or without 10 µM of β-gB1 and S-alkylated β-gB1 (β-gB1Alk) for 48 h at 37 °C and 5% CO2. PBS was used for the vehicle control experiment. The culture medium was transferred and mixed with the LDH assay reagent in a ratio of 9:1. The reaction mixture was incubated at 37 °C for 2 h, and colorimetric quantification was performed using a 450 nm wavelength. The assay was performed in experimental triplicates, and statistical calculations and bar graphs were done using GraphPad Prism software (Version 6.01). […]",
  "note": "Where a SMILES comes first, the peptide text is derived from it.",
  "data": [
    {"smiles": "CC[C@H](C)[C@@H]1NC(=O)[C@@H]2CSSC[C@H](NC(=O)CNC(=O)[C@@H](NC(=O)[C@H](CCC(=O)O)NC(=O)[C@@H](N)Cc3ccc(O)cc3)[C@@H](C)O)C(=O)N[C@@H](CCCCN)C(=O)N[C@@H](CCCNC(=N)N)C(=O)N[C@H]3CSSC[C@@H](C(=O)O)NC(=O)[C@H](CSSC[C@H](NC3=O)C(=O)N[C@@H](Cc3ccc(O)cc3)C(=O)N[C@@H](CC(C)C)C(=O)N[C@@H](CC(=O)O)C(=O)N[C@@H](CCC(=O)O)C(=O)N[C@@H](Cc3ccc(O)cc3)C(=O)NCC(=O)N2)NC(=O)[C@H](CCCNC(=N)N)NC1=O", "note": "[β-gB1] (HELM PEPTIDE1{Y.E.T.G.C.K.R.C.C.Y.L.D.E.Y.G.C.I.R.C.C}$PEPTIDE1,PEPTIDE1,5:R3-16:R3|PEPTIDE1,PEPTIDE1,8:R3-20:R3|PEPTIDE1,PEPTIDE1,9:R3-19:R3$$$V2.0; N-terminus and C-terminus assumed)", "values": [
      {"measurement": "Cytotoxicity / cell-membrane damage by LDH release", "result": "no significant cytotoxicity or cell-membrane damaging effects"}
    ]}
  ]
}
